Results taken from patent US11866430B2, “Naphthyridinone compounds useful as T cell activators” (priority 2018, dated 2024).
Where two headings read alike, the source gives them in different places.

How the values were obtained:
human DGKζ = human DGKζ (Homo sapiens (Human), UniProt Q13574); assay: DGKζ assay (detergent/lipid micelle substrate); format: biochemical; conditions: detergent/lipid micelle substrate; read-out: DGKζ IC50
Description: (§1) The DGKα and DGKζ reactions were performed using either extruded liposome (DGKα and DGKζ LIPGLO assays) or detergent/lipid micelle substrate (DGKα and DGKζ assays). The reactions were carried out in 50 mM MOPS pH 7.5, 100 mM NaCl, 10 mM MgCl2, 1 μM CaCl2, and 1 mM DTT (assay buffer). The reactions using a detergent/lipid micelle substrate also contained 50 mM octyl B-D-glucopyranoside. […] The lipid substrate concentrations were […], 0.25 mM DAG, and 2.75 mM PC for the extruded liposome reactions.
(§2) The compound inhibition studies were carried out as follows: 50 nL droplets of each test compound (top concentration 10 mM with 11 point, 3-fold dilution series for each compound) solubilized in DMSO were transferred to wells of a white 1536 well plate (Corning 3725). A 5 mL enzyme/substrate solution at 2× final reaction concentration was prepared by combining 2.5 mL 4× enzyme solution (20 nM DGKα or DGKζ (prepared as described below) in assay buffer) and 2.5 mL of either 4× liposome or 4× detergent/lipid micelle solution (compositions described below) and incubated at room temperature for 10 minutes. Next, 1 μL 2× enzyme/substrate solution was added to wells containing the test compound and reactions were initiated with the addition of 1 μL 300 uM ATP. The reactions were allowed to proceed for 1 hr, after which 2 μL Glo Reagent (Promega V9101) was added and incubated for 40 minutes. Next, 4 μL Kinase Detection Reagent was added and incubated for 30 minutes. Luminescence was recorded using an EnVision microplate reader. […] The compounds were evaluated at 11 concentrations to determine IC50.
(§3) The detergent/lipid micelle was prepared by combining 15 g phosphatidylserine (Avanti 840035P) and 1 g diacylglycerol (800811O) and dissolving into 150 mL chloroform in a 2 L round bottom flask. Chloroform was removed under high vacuum by rotary evaporation. The resulting colorless, tacky oil was resuspended in 400 mL 50 mM MOPS pH 7.5, 100 mM NaCl, 20 mM NaF, 10 mM MgCl2, 1 μM CaCl2), 1 mM DTT, and 200 mM octyl glucoside by vigorous mixing. The lipid/detergent solution was split into 5 mL aliquots and stored at −80° C.
(§4) Human DGK-alpha-TVMV-His-pFBgate and human DCK-zeta-transcript variant-2-TVMV-His-pFBgate baculovirus samples were generated using the Bac-to-Bac baculovirus expression system (Invitrogen) according to the manufacturer's protocol. The DNA used for expression of DGK-alpha and DGK-zeta have SEQ ID NOs: 1 and 3, respectively. Baculovirus amplification was achieved using infected Sf9 cells at 1:1500 virus/cell ratios, and grown for 65 hours at 27° C. post-transfection.
(§5) The expression scale up for each protein was carried out in the Cellbag 50 L WAVE-Bioreactor System 20/50 from GE Healthcare Bioscience. 12 L of 2×10^6 cells/mL Sf9 cells (Expression System, Davis, Calif.) grown in ESF921 insect medium (Expression System) were infected with virus stock at 1:200 virus/cell ratios, and grown for 66-68 hours at 27° C. post-infection. The infected cell culture was harvested by centrifugation at 2000 rpm for 20 min 4° C. in a SORVALL® RC12BP centrifuge. The cell pellets were stored at −70° C. until purification.
(§6) Full length human DGKα and DGKζ, each expressed containing a TVMV-cleavable C-terminal Hexa-His tag sequence (SEQ ID NOs: 2 and 4, respectively) and produced as described above, were purified from Sf) baculovirus-infected insect cell paste. The cells were lysed using nitrogen cavitation method with a nitrogen bomb (Parr Instruments), and the lysates were clarified by centrifugation. […] The three steps column chromatography included nickel affinity resin capture (i.e. HisTrap FF crude, GE Healthcare), followed by size exclusion chromatography (i.e. HiLoad 26/600 Superdex 200 prep grade, GE Healthcare for DGK-alpha, and HiPrep 26/600 Sephacryl S 300_HR, GE Healthcare for DGK-zeta).

[1] = test system: pre-activated CD4 T cells and Raji cells; assay: Raji CD4 T Cell IL2 Assay; format: cell-based
human DGKα = human DGKα (Homo sapiens (Human), UniProt P23743); assay: biochemical; conditions: detergent/lipid micelle substrate; read-out: DGKα IC50
Description: as §1, §2, §3, §4, §5, §6

Sequence of human DGKζ (Q13574 other isoform, or with tags, fused parts or gaps): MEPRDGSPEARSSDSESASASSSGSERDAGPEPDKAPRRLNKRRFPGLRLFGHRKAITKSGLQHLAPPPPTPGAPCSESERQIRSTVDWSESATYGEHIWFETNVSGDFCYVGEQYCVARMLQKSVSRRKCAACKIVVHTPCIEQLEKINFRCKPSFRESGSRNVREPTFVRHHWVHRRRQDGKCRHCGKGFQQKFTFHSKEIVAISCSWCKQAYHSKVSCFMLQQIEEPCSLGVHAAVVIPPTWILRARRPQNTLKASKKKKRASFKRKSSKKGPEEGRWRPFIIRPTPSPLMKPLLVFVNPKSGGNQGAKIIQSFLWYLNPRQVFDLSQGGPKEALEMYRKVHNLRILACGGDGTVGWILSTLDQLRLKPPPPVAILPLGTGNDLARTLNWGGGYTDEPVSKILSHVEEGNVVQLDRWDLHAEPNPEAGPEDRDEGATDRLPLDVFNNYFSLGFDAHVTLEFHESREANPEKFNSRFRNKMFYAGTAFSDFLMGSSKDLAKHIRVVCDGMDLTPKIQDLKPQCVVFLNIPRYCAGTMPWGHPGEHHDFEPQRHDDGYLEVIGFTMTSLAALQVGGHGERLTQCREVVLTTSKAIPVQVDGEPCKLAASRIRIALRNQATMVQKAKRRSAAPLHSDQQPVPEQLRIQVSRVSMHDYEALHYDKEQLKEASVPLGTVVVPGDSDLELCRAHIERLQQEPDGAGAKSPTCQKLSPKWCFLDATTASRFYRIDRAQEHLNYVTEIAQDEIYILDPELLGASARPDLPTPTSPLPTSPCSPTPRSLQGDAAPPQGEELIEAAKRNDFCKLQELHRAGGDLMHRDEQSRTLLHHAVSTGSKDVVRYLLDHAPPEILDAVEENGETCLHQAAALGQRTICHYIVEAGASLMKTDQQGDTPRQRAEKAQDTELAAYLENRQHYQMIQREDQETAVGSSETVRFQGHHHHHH
Sequence of human DGKα (P23743 other isoform, or with tags, fused parts or gaps): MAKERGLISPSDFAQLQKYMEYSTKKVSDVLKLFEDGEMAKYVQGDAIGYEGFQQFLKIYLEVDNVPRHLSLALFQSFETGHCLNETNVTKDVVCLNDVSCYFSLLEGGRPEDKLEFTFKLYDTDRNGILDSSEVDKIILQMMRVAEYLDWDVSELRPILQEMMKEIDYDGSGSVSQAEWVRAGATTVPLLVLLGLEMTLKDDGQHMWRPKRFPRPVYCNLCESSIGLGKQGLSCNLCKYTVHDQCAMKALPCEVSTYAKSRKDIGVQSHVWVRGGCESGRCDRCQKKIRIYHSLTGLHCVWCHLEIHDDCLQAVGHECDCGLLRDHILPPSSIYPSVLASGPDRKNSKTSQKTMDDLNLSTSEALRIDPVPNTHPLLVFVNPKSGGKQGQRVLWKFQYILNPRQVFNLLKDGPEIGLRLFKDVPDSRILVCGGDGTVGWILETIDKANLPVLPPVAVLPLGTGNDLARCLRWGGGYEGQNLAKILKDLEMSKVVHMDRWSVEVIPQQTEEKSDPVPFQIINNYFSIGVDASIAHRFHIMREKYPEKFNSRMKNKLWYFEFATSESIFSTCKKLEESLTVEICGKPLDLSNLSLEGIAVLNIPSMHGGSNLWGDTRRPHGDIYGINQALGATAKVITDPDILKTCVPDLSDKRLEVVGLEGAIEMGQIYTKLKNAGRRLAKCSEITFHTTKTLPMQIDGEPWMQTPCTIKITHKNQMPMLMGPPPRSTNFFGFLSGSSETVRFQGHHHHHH

SMILES	IC50 (human DGKζ) [nM]	IC50 ([1]; Homo sapiens, Raji) [nM]	IC50 (human DGKα) [nM]	IC50 [1] [nM]
Cc1ccc2c(n1)c(N1CCN(C(c3ccc(F)cc3)c3ccc(F)cc3)CC1)c(C(F)(F)F)c(=O)n2C [Example 232, 4-(4-(bis(4-fluorophenyl)methyl)piperazin-1-yl)-1,6-dimethyl-3-(trifluoromethyl)-1,5-naphthyridin-2(1H)-one]	> 240000	1100	150000	
Cn1c(=O)c(C#N)c(N2CCN(Cc3ccc(C(F)(F)F)c(F)c3)CC2)c2nc(Cl)ccc21 [Example 375, 6-chloro-4-(4-{[3-fluoro-4-(trifluoromethyl)phenyl]methyl}piperazin-1-yl)-1-methyl-2-oxo-1,2-dihydro-1,5-naphthylidine-3-carbonitrile]	> 240000	> 100000	1600	
Cn1c(=O)c(C#N)c(N2CCN(CC(O)c3ccc(F)cc3)CC2)c2nc(Br)ccc21 (single isomer, unassigned) [Example 30, 6-bromo-4-{4-[2-(4-fluorophenyl)-2-hydroxyethyl]piperazin-1-yl}-1-methyl-2-oxo-1,2-dihydro-1,5-naphthyridine-3-carbonitrile]	140000		1800	1100
COCCn1c(=O)c(C#N)c(N2CCN(C(c3ccc(F)cc3)c3ccccc3O)CC2)c2nc(Br)ccc21 (stereo not drawn) [Example 117, 6-bromo-4-(4-((4-fluorophenyl)(2-hydroxyphenyl)methyl)piperazin-1-yl)-1-(2-methoxyethyl)-2-oxo-1,2-dihydro-1,5-naphthyridine-3-carbonitrile]	21000	770	46000	
COc1cc(F)ccc1C(c1ccc(F)cc1)N1CCN(c2c([N+](=O)[O-])c(=O)n(C)c3ccc(Br)nc23)CC1 (single isomer, unassigned) [Example 58, 6-bromo-4-(4-((4-fluoro-2-methoxyphenyl)(4-fluorophenyl)methyl)piperazin-1-yl)-1-methyl-3-nitro-1,5-naphthyridin-2(1H)-one]	19000		250	28
Cn1c(=O)c(C#N)c(N2CCN(Cc3cc(Cl)cc(Cl)c3O)CC2)c2nc(Br)ccc21 [Example 366, 6-bromo-4-{4-[(3,5-dichloro-2-hydroxyphenyl)methyl]piperazin-1-yl}-1-methyl-2-oxo-1,2-dihydro-1,5-naphthyridine-3-carbonitrile]	160000	> 100000	1300	
Cn1c(=O)c(C#N)c(N2CCN(Cc3cccc(Cl)c3)CC2)c2nc(Cl)ccc21 [Example 302, 6-chloro-4-{4-[(3-chlorophenyl)methyl]piperazin-1-yl}-1-methyl-2-oxo-1,2-dihydro-1,5-naphthyridine-3-carbonitrile]	> 81000	180	610	
COc1ccc2c(c1)C(N1CCN(c3c(C#N)c(=O)n(C)c4ccc(Br)nc34)CC1)CC2 (stereo not drawn) [Example 21, 6-bromo-4-[4-(6-methoxy-2,3-dihydro-1H-inden-1-yl)piperazin-1-yl]-1-methyl-2-oxo-1,2-dihydro-1,5-naphthyridine-3-carbonitrile]	94000	410	22000	
Cn1c(=O)c([N+](=O)[O-])c(N2CCN(C(c3ccccc3)c3ccccc3O)CC2)c2nc(Br)ccc21 (single isomer, unassigned) [Example 79, 6-bromo-4-(4-((2-hydroxyphenyl)(phenyl)methyl)piperazin-1-yl)-1-methyl-3-nitro-1,5-naphthyridin-2(1H)-one]	> 81000		81000	67
Cn1c(=O)c(C#N)c(N2CCN(Cc3cc(F)ccc3F)CC2)c2nc(Cl)ccc21 [Example 318, 6-chloro-4-{4-[(2,5-difluorophenyl)methyl]piperazin-1-yl}-1-methyl-2-oxo-1,2-dihydro-1,5-naphthyridine-3-carbonitrile]	140000	290	850	
Cn1c(=O)c(C#N)c(N2CCN(Cc3ccc(F)cc3F)CC2)c2nc(Cl)ccc21 [Example 350, 6-chloro-4-{4-[(2,4-difluorophenyl)methyl]piperazin-1-yl}-1-methyl-2-oxo-1,2-dihydro-1,5-naphthyridine-3-carbonitrile]	> 81000	1500	1200	
Cn1c(=O)c(C#N)c(N2CCN(Cc3c(O)cccc3F)CC2)c2nc(Cl)ccc21 [Example 280, 6-chloro-4-{4-[(2-fluoro-6-hydroxyphenyl)methyl]piperazin-1-yl}-1-methyl-2-oxo-1,2-dihydro-1,5-naphthyridine-3-carbonitrile]	> 240000	92	76	
Cc1ccc2c(n1)c(N1CCN(Cc3ccccc3O)CC1)c(C#N)c(=O)n2C [Example 337, 4-{4-[(2-hydroxyphenyl)methyl]piperazin-1-yl}-1,6-dimethyl-2-oxo-1,2-dihydro-1,5-naphthyridine-3-carbonitrile]	> 81000	550	65	
Cn1c(=O)c(C#N)c(N2CCN(Cc3cccc(F)c3F)CC2)c2nc(Cl)ccc21 [Example 330, 6-chloro-4-{4-[(2,3-difluorophenyl)methyl]piperazin-1-yl}-1-methyl-2-oxo-1,2-dihydro-1,5-naphthyridine-3-carbonitrile]	> 240000	500	3700	
COc1ccccc1CN1CCN(c2c(C#N)c(=O)n(C)c3ccc(Cl)nc23)CC1 [Example 331, 6-chloro-4-{4-[(2-methoxyphenyl)methyl]piperazin-1-yl}-1-methyl-2-oxo-1,2-dihydro-1,5-naphthyridine-3-carbonitrile]	> 240000	520	490	
Cn1c(=O)c(C#N)c(N2CCN(Cc3cc(OC(F)(F)F)ccc3O)CC2)c2nc(Cl)ccc21 [Example 369, 6-chloro-4-(4-{[2-hydroxy-5-(trifluoromethoxy)phenyl]methyl}piperazin-1-yl)-1-methyl-2-oxo-1,2-dihydro-1,5-naphthyridine-3-carbonitrile]	> 240000	> 100000	160	
COCCn1c(=O)c([N+](=O)[O-])c(N2CCN(C(C)c3ccc(F)cc3)CC2)c2nc(C#N)ccc21 (single isomer, unassigned) [Example 150, 8-(4-(1-(4-fluorophenyl)ethyl)piperazin-1-yl)-5-(2-methoxyethyl)-7-nitro-6-oxo-5,6-dihydro-1,5-naphthyridine-2-carbonitrile]	88000		73000	510
C#CCn1c(=O)c(C#N)c(N2CCN(Cc3ccccc3C(F)F)CC2)c2nc(Br)ccc21 [Example 64, 6-bromo-4-(4-(2-(difluoromethyl)benzyl)piperazin-1-yl)-2-oxo-1-(prop-2-yn-1-yl)-1,2-dihydro-1,5-naphthyridine-3-carbonitrile]	14000	55000	2700	
Cn1c(=O)c(C#N)c(N2CCN(Cc3cccc(Br)c3O)CC2)c2nc(Cl)ccc21 [Example 268, 4-{4-[(3-bromo-2-hydroxyphenyl)methyl]piperazin-1-yl}-6-chloro-1-methyl-2-oxo-1,2-dihydro-1,5-naphthyridine-3-carbonitrile]	120000	51	680	
